9 compounds from PubChem BioAssay (NCI) can be followed below.

What all share (assay): NCI-60 cell line screen, 48 h
Assay [1] deals with MOLT-4 leukemia.
For assay [2], the system named is HCT-15 colon.
The subject of assay [3] is UACC-62 melanoma.
Assay [4] has as its system BT-549 breast.
Assay [5] relates to RPMI-8226 leukemia.
The subject of assay [6] is HT29 colon.
Assay [7] deals with HOP-92 NSCLC.
In assay [8] the test system is OVCAR-5 ovarian.
Assay [9] deals with IGROV1 ovarian.
The subject of assay [10] is SK-OV-3 ovarian.

SMILES strings stand for the structures.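 Values below derive from 48-hour exposures of cells grown in 96-well plates, with endpoints linearly interpolated between the two concentrations bracketing the appropriate inhibition level. GI50 marks 50% less growth. TGI marks complete inhibition of growth.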

`Cc1cc2nc(-c3c(F)cccc3Cl)n(Cc3c(F)cccc3Cl)c2cc1C`: the GI50 in assay [1] is 30.4 µM; in assay [2], 13.9 µM; in [3], 6.41 µM; in assay [4], 18.5 µM; in assay [5], 16.3 µM; in assay [6], 10.5 µM. For the same compound, the GI50 is 14 µM in [7], 15.9 µM in [8], 33 µM in assay [9] and 19.3 µM in [10]. Further, the TGI is more than 100 µM in assay [1]; 33.3 µM in assay [2]; 19.3 µM in assay [3]; 46.2 µM in assay [4]; more than 100 µM in [5]; more than 100 µM in assay [6]. In addition, the TGI in assay [7] was 33.5 µM; in assay [8] it was 34.1 µM; in assay [9] it was more than 100 µM; in assay [10], 51.8 µM.

Consider `COC(=O)/C(=N\Nc1nnc(C)n1N)C(C#N)c1ccccc1` (stereo not given), for which the TGI in assay [1], in assay [2], in [3], in [4], in [5] and in [6] was more than 100 µM in each case. Besides, the TGI in [7], in assay [8], in assay [9] and in [10] was more than 100 µM each time.

For `NC(=O)c1ccc(N(C(N)=O)c2c(F)cccc2F)nc1-c1ccc(F)cc1F`, the GI50 in assay [1], in [2], in [3], in [4], in assay [5] and in assay [6] was more than 100 µM throughout. The GI50 in assay [7] was 28 µM; in assay [8], more than 100 µM; in assay [9] it was more than 100 µM; in assay [10], more than 100 µM. In addition, the TGI in assay [1], in assay [2], in assay [3], in [4], in assay [5] and in [6] was more than 100 µM throughout. Further, the TGI in [7], in assay [8], in assay [9] and in assay [10] was more than 100 µM in each case.

For the compound `Cc1c(Cl)c(C)c(Cc2c(C)c(Cl)c(C)c(Cl)c2O)c(O)c1Cl`, the GI50 was 3.24 µM in assay [1]; 2.32 µM in assay [2]; 1.81 µM in assay [3]; 2.37 µM in assay [4]; 1.18 µM in [5]; 3.84 µM in assay [6]. Further, the GI50 in assay [7] was 1.16 µM; in assay [8], 3.67 µM; in [9], 4.07 µM; in assay [10] it was 2.68 µM. For the same compound, the TGI in assay [1] stood at 13.4 µM; in assay [2], 10.7 µM; in assay [3], 6.84 µM; in assay [4], 8.33 µM; in assay [5], 6.66 µM; in [6] it was 12.7 µM. The TGI amounted to 4.74 µM in assay [7], 14.4 µM in assay [8], 19 µM in assay [9] and 9.46 µM in assay [10].

For `COc1cc(-c2cc(=O)c3c(O)c(OC)c(OC)c(OC)c3o2)cc(OC)c1OC`, the TGI in [1], in [2], in assay [3], in [4], in assay [5] and in assay [6] was more than 100 µM each time. Moreover, the TGI in assay [7] was 27.3 µM; in assay [8], more than 100 µM; in assay [9] it was more than 100 µM; in assay [10] it was 26 µM.

Regarding `COc1cc2c(cc1OCCCOc1ccc(-c3nc4ccc(N5CCN(C)CC5)cc4[nH]3)cc1)N=C[C@@H]1CCCN1C2=O`, the GI50 in assay [1] was less than 0.01 µM; in [2], less than 0.0212 µM; in assay [3], less than 0.0133 µM; in [4], less than 0.01 µM; in assay [5] it was less than 0.01 µM; in [6], less than 0.01 µM. The GI50 in [8] and in assay [10] was less than 0.01 µM throughout. For the same compound, the TGI in assay [1] was less than 0.01 µM; in assay [2], 42.8 µM; in assay [3], less than 0.0201 µM; in [4], less than 0.01 µM; in [5], less than 0.01 µM; in assay [6], more than 100 µM. In addition, in assay [10], the TGI is 22.8 µM.

In the case of `Nc1nc(N)c2c(n1)NC(c1sc(Cl)nc1Cl)CC(c1ccc3c(c1)OCO3)=N2` (stereo not given), the GI50 in assay [1] was 5.91 µM; in assay [2], 1.07 µM; in assay [3] it was 2.17 µM; in assay [4], 3.79 µM; in assay [5], 4.66 µM; in assay [7], 4.25 µM. The GI50 in assay [8] was 6.03 µM; in assay [9], 10.4 µM; in assay [10] it was 2.78 µM. Further, the TGI was 41.9 µM in assay [1]; 20 µM in assay [2]; 18.9 µM in [3]; 18.9 µM in [4]; 25 µM in assay [5]; 23.8 µM in assay [7]. Besides, the TGI is 33 µM in assay [8], 47.6 µM in assay [9] and 9.77 µM in [10].

In the case of `CNC(c1ccncc1)C(NC)c1ccncc1` (stereo not given), the TGI in assay [1], in assay [2], in assay [3], in assay [4], in assay [5] and in assay [6] was more than 100 µM each time. For the same compound, the TGI in [8], in assay [9] and in assay [10] was more than 100 µM each time.

Take `COc1cc(/C=N/NC(=O)c2ccccc2Nc2cccc(C(F)(F)F)c2)cc(OC)c1OC`: the GI50 in assay [1] was 3.14 µM; in assay [2], 2.85 µM; in assay [3] it was 3.66 µM; in [4], 2.3 µM; in assay [5], 0.754 µM; in assay [6], 1.67 µM. Also, the GI50 in [8] was 11.8 µM; in assay [9], 4.19 µM; in assay [10] it was 2.92 µM. In addition, the TGI in assay [1] was 15.3 µM; in assay [2] it was 13.2 µM; in [3] it was 11.6 µM; in [4], 9.23 µM; in [5], more than 22.7 µM; in assay [6], 10.8 µM. Further, the figures for the TGI in [8], in assay [9] and in assay [10] were 33.1 µM, 14.2 µM and 8.44 µM, respectively.
